The record followed here is the supplement of paper PMC12463676, “Small-molecule dissolution of stress granules by redox modulation benefits ALS models” (Nature Chemical Biology, 2025).

Compound in assay [1]: NC(=O)CCCCC1CCSS1 [lipoamide]
The experiment in a line: thermal stability z-score vs DMSO; higher = more thermally stabilized by treatment. Conditions: HeLa, lipoamide concentration 100 µM. Here is the method: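 Cellular thermal proteome profiling in HeLa cells. Cells were treated with 100 µM lipoamide for 1 h, with or without 1 mM arsenate for a further 1 h, then heated to ten temperatures (37-66.3 °C), and soluble protein was quantified by TMT mass spectrometry relative to 0.1% DMSO controls. The thermal stability score (sum of log2 fold changes minus the abundance score) was transformed to a z-score; mean of n = 3 experiments.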

Compound in assay [2]: O=[As]([O-])(O)O.[K+] [potassium arsenate]
The description is as above. Conditions: HeLa; arsenate concentration 1 mM. On the procedure:
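Cellular thermal proteome profiling in HeLa cells treated with 1 mM arsenate for 1 h (DMSO pretreatment), heated to ten temperatures (37-66.3 °C). Soluble protein was quantified by TMT mass spectrometry relative to DMSO controls; the thermal stability score was transformed to a z-score; mean of n = 3 experiments.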

The mark [3] stands for this setting: arsenate co-treatment: 1 mM arsenate 1 h.
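Also: each temperature applied for 3 min, abundance score taken as mean log2 fold change at the two lowest temperatures, z-score obtained by mean subtraction and division by SD.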

UniProt Q6IA69, sequence (Q6IA69 whole entry): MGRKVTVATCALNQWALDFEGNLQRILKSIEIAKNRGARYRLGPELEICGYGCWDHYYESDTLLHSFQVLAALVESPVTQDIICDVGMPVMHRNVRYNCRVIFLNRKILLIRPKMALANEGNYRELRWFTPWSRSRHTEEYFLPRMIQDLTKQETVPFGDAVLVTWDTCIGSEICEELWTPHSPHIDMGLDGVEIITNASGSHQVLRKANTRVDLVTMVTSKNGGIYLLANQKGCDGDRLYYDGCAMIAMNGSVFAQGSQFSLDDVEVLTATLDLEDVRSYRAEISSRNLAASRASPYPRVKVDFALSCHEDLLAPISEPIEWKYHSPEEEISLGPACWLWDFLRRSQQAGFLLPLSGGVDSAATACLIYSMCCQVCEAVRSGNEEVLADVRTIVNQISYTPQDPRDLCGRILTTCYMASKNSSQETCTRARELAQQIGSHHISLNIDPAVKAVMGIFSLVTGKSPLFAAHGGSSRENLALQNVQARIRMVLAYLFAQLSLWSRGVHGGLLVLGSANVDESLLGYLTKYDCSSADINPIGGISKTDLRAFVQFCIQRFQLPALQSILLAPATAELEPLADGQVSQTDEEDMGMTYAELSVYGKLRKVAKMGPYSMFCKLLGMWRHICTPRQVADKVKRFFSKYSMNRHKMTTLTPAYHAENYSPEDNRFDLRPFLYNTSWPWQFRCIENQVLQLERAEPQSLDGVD
UniProt Q6XZF7, sequence (Q6XZF7 whole entry): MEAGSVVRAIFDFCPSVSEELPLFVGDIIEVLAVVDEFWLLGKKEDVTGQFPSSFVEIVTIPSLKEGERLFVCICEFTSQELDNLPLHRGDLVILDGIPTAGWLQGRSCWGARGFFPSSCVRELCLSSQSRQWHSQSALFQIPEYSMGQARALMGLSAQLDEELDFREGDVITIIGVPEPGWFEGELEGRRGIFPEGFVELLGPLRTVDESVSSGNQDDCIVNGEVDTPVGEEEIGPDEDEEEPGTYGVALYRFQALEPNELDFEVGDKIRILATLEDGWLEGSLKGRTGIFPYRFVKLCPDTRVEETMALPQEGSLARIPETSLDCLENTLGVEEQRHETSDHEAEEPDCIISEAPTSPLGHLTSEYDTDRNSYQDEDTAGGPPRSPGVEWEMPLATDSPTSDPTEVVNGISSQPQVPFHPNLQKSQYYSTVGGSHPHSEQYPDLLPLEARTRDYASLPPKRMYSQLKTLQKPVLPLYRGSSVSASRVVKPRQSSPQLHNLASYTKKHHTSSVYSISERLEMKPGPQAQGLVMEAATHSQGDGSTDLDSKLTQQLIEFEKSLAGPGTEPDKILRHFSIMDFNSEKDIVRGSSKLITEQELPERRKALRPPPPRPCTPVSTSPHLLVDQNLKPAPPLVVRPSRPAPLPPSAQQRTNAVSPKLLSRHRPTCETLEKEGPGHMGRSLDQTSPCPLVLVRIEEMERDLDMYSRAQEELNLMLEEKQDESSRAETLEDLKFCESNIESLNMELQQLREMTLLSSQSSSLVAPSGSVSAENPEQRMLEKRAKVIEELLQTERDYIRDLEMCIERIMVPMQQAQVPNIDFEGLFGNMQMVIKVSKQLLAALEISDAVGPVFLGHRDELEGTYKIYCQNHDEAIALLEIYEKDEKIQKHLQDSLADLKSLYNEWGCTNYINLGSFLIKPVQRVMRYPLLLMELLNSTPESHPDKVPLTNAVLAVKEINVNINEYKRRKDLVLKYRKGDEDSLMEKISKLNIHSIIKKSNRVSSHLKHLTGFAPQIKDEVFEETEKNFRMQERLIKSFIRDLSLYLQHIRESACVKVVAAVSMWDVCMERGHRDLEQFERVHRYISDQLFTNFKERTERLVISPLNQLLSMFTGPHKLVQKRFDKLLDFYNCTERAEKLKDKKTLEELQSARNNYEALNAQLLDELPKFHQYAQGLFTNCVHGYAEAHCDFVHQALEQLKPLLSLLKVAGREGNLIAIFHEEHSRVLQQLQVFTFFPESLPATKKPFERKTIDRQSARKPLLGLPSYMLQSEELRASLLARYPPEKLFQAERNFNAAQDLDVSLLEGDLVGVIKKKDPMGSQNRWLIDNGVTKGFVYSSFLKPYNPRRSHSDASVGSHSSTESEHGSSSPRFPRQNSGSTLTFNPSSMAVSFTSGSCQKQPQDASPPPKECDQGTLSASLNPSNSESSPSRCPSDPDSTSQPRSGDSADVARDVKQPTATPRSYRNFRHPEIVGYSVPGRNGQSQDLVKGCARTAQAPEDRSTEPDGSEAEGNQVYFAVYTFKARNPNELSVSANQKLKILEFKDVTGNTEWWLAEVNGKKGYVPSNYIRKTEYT
UniProt Q92879, sequence (Q92879 whole entry): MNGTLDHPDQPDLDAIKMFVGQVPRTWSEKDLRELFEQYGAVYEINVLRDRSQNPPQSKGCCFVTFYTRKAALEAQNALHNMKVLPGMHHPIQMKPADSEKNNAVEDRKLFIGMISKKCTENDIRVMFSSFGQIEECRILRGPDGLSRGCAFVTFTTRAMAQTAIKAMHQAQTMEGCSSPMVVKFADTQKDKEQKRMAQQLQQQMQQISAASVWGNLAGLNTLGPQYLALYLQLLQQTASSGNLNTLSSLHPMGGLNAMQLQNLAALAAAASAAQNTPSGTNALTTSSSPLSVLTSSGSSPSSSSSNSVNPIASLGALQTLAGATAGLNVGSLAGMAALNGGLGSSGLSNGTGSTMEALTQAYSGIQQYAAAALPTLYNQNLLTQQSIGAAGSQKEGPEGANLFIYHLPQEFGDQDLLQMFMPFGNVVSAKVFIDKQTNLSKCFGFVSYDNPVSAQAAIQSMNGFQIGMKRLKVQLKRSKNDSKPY
UniProt O75874, sequence (O75874 whole entry): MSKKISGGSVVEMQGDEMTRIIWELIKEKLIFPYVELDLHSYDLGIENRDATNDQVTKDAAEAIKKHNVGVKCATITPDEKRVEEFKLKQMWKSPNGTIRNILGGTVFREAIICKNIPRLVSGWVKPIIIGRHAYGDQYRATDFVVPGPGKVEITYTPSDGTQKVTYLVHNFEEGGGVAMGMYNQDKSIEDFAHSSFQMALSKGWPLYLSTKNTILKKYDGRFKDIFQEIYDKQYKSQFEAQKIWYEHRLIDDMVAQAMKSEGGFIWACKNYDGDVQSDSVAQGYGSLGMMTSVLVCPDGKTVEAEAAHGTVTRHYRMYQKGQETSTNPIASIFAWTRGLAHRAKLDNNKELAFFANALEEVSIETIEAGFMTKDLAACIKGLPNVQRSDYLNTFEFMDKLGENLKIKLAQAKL
UniProt Q5T9S5, sequence (Q5T9S5 whole entry): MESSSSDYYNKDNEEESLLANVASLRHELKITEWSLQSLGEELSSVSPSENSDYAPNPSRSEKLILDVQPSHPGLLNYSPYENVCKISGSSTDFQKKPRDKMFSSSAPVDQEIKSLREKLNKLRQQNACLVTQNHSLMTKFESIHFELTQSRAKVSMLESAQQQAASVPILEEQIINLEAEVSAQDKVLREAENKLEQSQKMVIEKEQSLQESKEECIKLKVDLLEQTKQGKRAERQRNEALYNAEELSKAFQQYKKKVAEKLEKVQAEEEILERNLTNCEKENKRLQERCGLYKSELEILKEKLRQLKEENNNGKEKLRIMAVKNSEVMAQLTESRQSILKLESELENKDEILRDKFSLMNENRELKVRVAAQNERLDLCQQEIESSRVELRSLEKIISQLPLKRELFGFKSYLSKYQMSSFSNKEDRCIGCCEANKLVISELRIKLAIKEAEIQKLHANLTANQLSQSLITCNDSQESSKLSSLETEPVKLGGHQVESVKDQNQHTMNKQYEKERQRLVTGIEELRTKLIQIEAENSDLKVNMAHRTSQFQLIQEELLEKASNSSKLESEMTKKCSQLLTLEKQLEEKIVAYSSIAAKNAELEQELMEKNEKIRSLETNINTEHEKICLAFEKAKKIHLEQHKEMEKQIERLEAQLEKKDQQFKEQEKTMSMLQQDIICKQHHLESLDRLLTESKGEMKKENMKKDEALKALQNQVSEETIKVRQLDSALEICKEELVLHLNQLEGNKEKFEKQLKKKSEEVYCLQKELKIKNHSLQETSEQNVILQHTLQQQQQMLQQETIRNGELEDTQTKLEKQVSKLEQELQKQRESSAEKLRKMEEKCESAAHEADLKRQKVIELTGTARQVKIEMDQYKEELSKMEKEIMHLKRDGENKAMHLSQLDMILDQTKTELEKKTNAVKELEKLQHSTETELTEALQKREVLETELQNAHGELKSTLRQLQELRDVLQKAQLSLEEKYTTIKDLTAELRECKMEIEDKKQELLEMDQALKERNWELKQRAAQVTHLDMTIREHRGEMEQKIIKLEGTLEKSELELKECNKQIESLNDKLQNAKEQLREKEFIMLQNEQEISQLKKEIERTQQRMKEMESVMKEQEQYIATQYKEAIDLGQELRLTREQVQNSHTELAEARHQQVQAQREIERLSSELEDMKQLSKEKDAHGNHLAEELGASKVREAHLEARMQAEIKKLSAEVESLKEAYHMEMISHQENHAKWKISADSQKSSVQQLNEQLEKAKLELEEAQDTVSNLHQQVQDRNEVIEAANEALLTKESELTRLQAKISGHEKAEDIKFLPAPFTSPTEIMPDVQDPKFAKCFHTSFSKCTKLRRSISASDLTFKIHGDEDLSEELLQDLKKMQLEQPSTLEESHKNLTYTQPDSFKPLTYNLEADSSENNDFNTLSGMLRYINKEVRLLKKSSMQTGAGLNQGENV
UniProt O75569, sequence (O75569 whole entry): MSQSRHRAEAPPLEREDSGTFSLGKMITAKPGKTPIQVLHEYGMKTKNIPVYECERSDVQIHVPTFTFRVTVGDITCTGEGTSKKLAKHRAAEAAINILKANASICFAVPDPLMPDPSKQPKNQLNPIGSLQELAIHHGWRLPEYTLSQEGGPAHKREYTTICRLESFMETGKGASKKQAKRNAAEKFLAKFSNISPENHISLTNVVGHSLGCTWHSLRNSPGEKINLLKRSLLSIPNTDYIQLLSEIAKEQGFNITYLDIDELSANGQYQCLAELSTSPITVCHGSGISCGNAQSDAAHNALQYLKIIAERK
UniProt P56181, sequence (P56181 whole entry): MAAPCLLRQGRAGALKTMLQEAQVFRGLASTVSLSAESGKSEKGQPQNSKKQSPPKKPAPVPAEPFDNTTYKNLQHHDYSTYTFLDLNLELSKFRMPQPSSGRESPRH

In the case of CELF1 (UniProt Q92879), the figures for the thermal stability z-score in assay [1] (setting [3]), in assay [1] (arsenate co-treatment: none) and in assay [2] were -1.1, -0.66 and -0.593, respectively.
GTF3A (UniProt Q92664): the thermal stability z-score in assay [1] (setting [3]) was -0.654; in assay [1] (arsenate co-treatment: none), -0.754; in assay [2], -1.35.
CCDC18 (UniProt Q5T9S5): the thermal stability z-score was 0.0532 in assay [1] (setting [3]), -0.042 in assay [1] (arsenate co-treatment: none) and 0.0398 in assay [2].
For DNMBP (UniProt Q6XZF7), in that order: -0.142, -0.138 and 0.897.
For AIP (UniProt O00170), in that order: -0.0398, -0.833 and -2.08.
Consider TMEM33 (UniProt P57088), for which the thermal stability z-score in assay [1] (setting [3]) was -0.0206; in assay [1] (arsenate co-treatment: none) it was -1.12; in assay [2] it was 0.972.
For NADSYN1 (UniProt Q6IA69), in that order: 0.995, 0.788 and -0.0415.
For PRKRA (UniProt O75569), in that order: -0.115, -0.0608 and -0.312.
The like results for MIOS (UniProt Q9NXC5) were, in that order, 0.0112, 0.085 and -0.469.
As for HNRNPU (UniProt Q00839), the thermal stability z-score was determined as 0.572 in assay [1] (setting [3]), 1.39 in assay [1] (arsenate co-treatment: none) and 0.509 in assay [2].
As for NDUFV3 (UniProt P56181), the results for the thermal stability z-score in assay [1] (setting [3]), in assay [1] (arsenate co-treatment: none) and in assay [2] were 0.238, 0.504 and -0.157, respectively.
On to MARVELD2 (UniProt Q8N4S9), for which the thermal stability z-score in assay [1] (setting [3]) was -0.452; in assay [1] (arsenate co-treatment: none) it was 0.477; in assay [2], -0.292.
The like results for IP6K1 (UniProt Q92551) were, in that order, 0.327, -0.471 and -0.179.
The like results for FSTL3 (UniProt O95633) were, in that order, -3.19, -2.34 and 0.0815.
For GALNT1 (UniProt Q10472), in that order: -0.568, -0.256 and -0.187.
For the target G3BP2 (UniProt Q9UN86), the thermal stability z-score in assay [1] (setting [3]) is -0.0281; in assay [1] (arsenate co-treatment: none), -0.411; in assay [2] it was 0.561.
The like results for HSD17B10 (UniProt Q99714) were, in that order, 0.921, 0.151 and -1.29.
The like results for PAPD5 (UniProt Q8NDF8) were, in that order, 0.175, -0.0726 and -0.0587.
For LPCAT4 (UniProt Q643R3), the thermal stability z-score in assay [1] (setting [3]) is -0.953; in assay [1] (arsenate co-treatment: none), 0.367; in assay [2], 0.519.
For DIP2B (UniProt Q9P265), in that order: 0.206, 0.147 and -0.222.
For TRIT1 (UniProt Q9H3H1), in that order: -0.0696, -0.0898 and 0.0151.
For IDH1 (UniProt O75874), in that order: 0.0654, -0.257 and -0.596.
Turning to NEK6 (UniProt Q9HC98), the thermal stability z-score in assay [1] (setting [3]) was -0.181; in assay [1] (arsenate co-treatment: none) it was -0.266; in assay [2] it was -0.209.
